Source: PMC11484510, “Antibacterial activity of structurally diverse natural prenylated isobavachalcone derivatives” (RSC Advances, 2024)
In brackets after ≈: the same amount, converted by molar mass. Entries after “also recorded” stand apart in the source; their conditions may differ. Where two headings read alike, the source gives them in different places.

Assays:
Assay type in all cases: cell-based
E. coli ATCC 25922 [1] = experiment: MIC, broth microdilution (CLSI), Alamar blue; conditions: E. coli ATCC 25922, 24 hours at 37 °C, read-out: Minimum inhibitory concentration (MIC) E. coli
From the text: (§1) The bacterial strains S. aureus ATCC 29213, MRSA ATCC 15187, E. coli ATCC 25922, and P. aeruginosa ATCC 27853 were obtained from ATCC (American Type Culture Collection). Cation-adjusted Mueller–Hinton broth (MHB; Becton–Dickinson, Cockeysville, MD) was used to determine the minimum inhibitory concentration (MIC). Mueller–Hinton agar (MHA; Becton–Dickinson) was used for minimum bactericidal concentration (MBC) studies. Alamar blue (Himedia) was used to detect the MIC value.
(§2) The antibacterial activity of the compounds against S. aureus ATCC 29213, MRSA ATCC 15187, E. coli ATCC 25922, and P. aeruginosa ATCC 27853 was determined through a broth microdilution method according to the guidelines of the Clinical and Laboratory Standards Institute (CLSI).[50] […] Growth control and media control were employed along with 2% DMSO as vehicle control.
(§3) In a 96-well flat bottom plate, the test compounds were two-fold serially diluted in Mueller Hinton Broth (MHB). The final concentrations of the compounds ranged from 100 to 0.08 μM. 100 μL of standardized bacterial inoculum with turbidity equivalent to 0.5 McFarland standard (1.5 × 10^8 CFU mL^−1) was diluted 1 : 100 (1.5 × 10^6 CFU mL^−1) in Mueller Hinton Broth and inoculated in the plates.[51] The plates were incubated for 24 hours at 37 °C. After incubation, 10 μL of freshly prepared Alamar blue (Himedia) was added to each well of the plate, and plates were further incubated at 37 °C for 30 minutes. After incubation, the fluorescence was measured at excitation/emission of 540–570/580–610 nm. The percentage inhibition and viability were calculated for the controls, and the Gompertz curve was utilized to estimate the minimum inhibitory concentration.

P. aeruginosa ATCC 27853 [2] = experiment: MIC, broth microdilution (CLSI), Alamar blue; conditions: P. aeruginosa ATCC 27853, 24 hours at 37 °C, read-out: Minimum inhibitory concentration (MIC) P. aeruginosa
From the text: as §1, §2, §3

S. aureus ATCC 29213 [3] = experiment: MIC, broth microdilution (CLSI), Alamar blue; conditions: S. aureus ATCC 29213, 24 hours at 37 °C, read-out: Minimum inhibitory concentration (MIC) S. aureus
From the text: as §1, §2, §3

E. coli ATCC 25922 [4] = experiment: MBC, plating on MHA; conditions: Escherichia coli, ATCC25922; more than 99.9% of the cells killed; read-out: Minimum bactericidal concentration (MBC) E. coli
From the text: as §1
(§4) MBC is defined as the lowest concentration of the compound at which more than 99.9% of the cells were killed compared with the growth control. The minimum compound concentration at which no visible bacterial growth was observed was taken as the Minimum Bactericidal Concentration (MBC).[50]

P. aeruginosa ATCC 27853 [5] = experiment: MBC, plating on MHA; conditions: Pseudomonas aeruginosa, ATCC27853; more than 99.9% of the cells killed; read-out: Minimum bactericidal concentration (MBC) P. aeruginosa
From the text: as §1, §4

S. aureus ATCC 29213 [6] = experiment: MBC, plating on MHA; conditions: Staphylococcus aureus, ATCC29213; more than 99.9% of the cells killed; read-out: Minimum bactericidal concentration (MBC) S. aureus
From the text: as §1, §4

S. aureus ATCC 29213 [7] = experiment: Time-kill assay
S. aureus = experiment: Cell integrity analysis by PI staining; conditions: 1× MIC and 2× MIC, 30 minutes, compared to the untreated cells
Description: Propidium iodide (PI) indicates cell integrity, emitting a red fluorescence signal. PI's polar and hydrophilic nature impedes its entrance within active bacterial cells, but within perforated dead cells, it can easily bind to nucleic acid (DNA/RNA).[32,60]S. aureus bacterial cells were incubated overnight at 37 °C and diluted further 1 : 100 in Mueller Hinton Broth (MHB). The diluted culture was grown until its OD600 reached 0.5. […] Vancomycin was used as a drug control at 1× MIC, while untreated bacterial cells were used as growth control. The samples were centrifuged at 5000 rpm speed at 4 °C temperature for 10 minutes, and the pellet was washed two times using phosphate-buffered saline pH-7.4 (PBS). To stain the sample (dead cells), 3 μL PI of 20.0 mM concentration was added to the 1 mL solution (pellet resuspended in PBS) and incubated for 15 minutes. To remove the dye, the samples were centrifuged again and washed with PBS once. The final pellet was resuspended in 1 mL of PBS, and 30 μL of each undiluted sample was used to obtain fluorescence imaging. The cells were observed under fluorescence microscopy.[61]

Which results are given for `CC(C)=CCc1c(O)ccc2c1O/C(=C\c1ccc(O)cc1)C2=O` [IBC-3, (Z)-6-hydroxy-2-(4-hydroxybenzylidene)-7-(3-methylbut-2-en-1-yl)benzofuran-3(2H)-one]?
MIC (E. coli ATCC 25922 [1]): 23 µM (≈ 7.41 µg/mL); MIC (E. coli ATCC 25922 [1]; Escherichia coli, ATCC25922): 23 µM (≈ 7.41 µg/mL); MIC (P. aeruginosa ATCC 27853 [2]): 24 µM (≈ 7.74 µg/mL); MIC (P. aeruginosa ATCC 27853 [2]; Pseudomonas aeruginosa, ATCC27853, 24 h): 24 µM (≈ 7.74 µg/mL); MIC (S. aureus ATCC 29213 [3]): 10 µM (≈ 3.22 µg/mL); MIC (S. aureus ATCC 29213 [3]; Staphylococcus aureus, ATCC29213): 10 µM (≈ 3.22 µg/mL); MBC (E. coli ATCC 25922 [4]): 25 µM (≈ 8.06 µg/mL); MBC (P. aeruginosa ATCC 27853 [5]): 100 µM (≈ 32.2 µg/mL); MBC (S. aureus ATCC 29213 [6]): 25 µM (≈ 8.06 µg/mL); CFU count of S. aureus ATCC 29213 in time-kill study (S. aureus ATCC 29213 [7]; 2× MIC and 4× MIC, with increasing time (up to 24 h)): below the detection limit; Time-kill profile (S. aureus ATCC 29213 [7]; MIC, 2× MIC, 4× MIC, 1 h to 24 h, 37 °C): concentration-dependent killing effect; also recorded: concentration and time-dependent killing effects; PI red fluorescence (cell integrity) (S. aureus): notably increased intensity of red fluorescence
